Test results: article PMC4402683, “FIBT versus florbetaben and PiB: a preclinical comparison study with amyloid-PET in transgenic mice” (EJNMMI Research, 2015)

Key:
[1] = Lipophilicity (log Doct/PBS) by partition between 1-octanol and PBS; assay type: physicochemical; conditions: 1-octanol/PBS pH 7.4, mean ± SD, N = 6
Description: Lipophilicity of the employed compounds was determined by a conventional partition method between 1-octanol and phosphate buffered saline (PBS), pH 7.4. The 1-octanol was saturated with PBS before use. Briefly, the no-carrier-added tracers, contained in 0.2 mL PBS, were added 0.2 mL of 1-octanol in a 1.5-mL polypropylene Eppendorf vial. The vial was sealed and vigorously shaken at room temperature for 5 min. The mixture was then centrifuged at 3,000 g for 10 min. A 100 μL aliquot from each of the two phases was drawn and their radioactivity content was determined in a NaI (Tl) well-type detector. The log Doct/PBS was calculated as follows: log Doct/PBS = log (radioactivity concentration in the 1-octanol phase/radioactivity concentration in the PBS phase). The reported values represent the mean of six independent measurements.

Aβ plaques = assay: Small animal PET imaging in APP/PS1 tg and control mice (cortex + hippocampus-to-cerebellum PET ratio); assay type: in vivo, mouse; conditions: for Mean PET ratio (SUVR ± SD), cortex + hippocampus to cerebellum: 36 to 45 min; for SUVRtg/SUVRctl (tg/ctl): ratio of APP/PS1 tg to control mice SUVR
Description: Inhalation anesthesia with isoflurane was used and the eyes of the animals were protected with dexpanthenol eye ointment. Anesthesia was initiated 15 min ahead of experiments by placing the animal in a cage ventilated with oxygen (3.5 L/min) containing 3% isoflurane. Throughout the experiments, anesthesia was maintained by adjusting the isoflurane content (0.6% to 2%) to ensure a respiratory rate in the range 80 to 100/min. For i.v. injection, we inserted a tailored catheter into the lateral tail vein. Simultaneously with a slow bolus injection of 50 to 200 μL of tracer solution, we started the PET with scan duration of 45 min in 3D list mode on a Siemens Inveon system (axial field-of-view of 12.7 cm with a bore diameter of 12 cm, approximately 1.4 mm full-width-at-half-maximum spatial resolution; Siemens Healthcare, Erlangen, Germany). After tracer injection, we flushed the catheter with 50 to 100 μL of isotonic sodium chloride solution. During the scan, a heating pad prevented hypothermia. The radioactivity in the syringe was measured immediately before and after injection with a Capintec CRC® 15R (Capintec Inc, 6 Arrow Road Ramsey, NJ, USA) dose calibrator.
Based on our experience, variance of macroscopic brain anatomy is very low across mice with the same genetic background. Therefore, the creation of a MRI template was done by manual co-registration of all MR images based on prominent brain structures and the overall cortical contour and calculation of a mean image (Pmod 3.3, Pmod Technologies, Zurich, Switzerland). Structures outside of the brain were not considered in the manual co-registration process. Two major volume-of-interests (VOIs) were defined on the MRI template, one comprising the full cortex including hippocampus, the other comprising the full cerebellum. The same VOIs were then used for reading out co-registered PET data of a mean image of the final 10 min of the scan (minute 36 to 45). The VOIs were chosen based on previous findings in a voxel-based analysis of cerebral PiB uptake and its correlation with the underlying Aβ pathology in this mouse model. PET data was normalized and corrected for decay and dead time. The images were reconstructed by means of filtered back-projection (FBP), using a ramp filter with a cutoff at the Nyquist frequency into 45 frames (45 × 60 s). The image volume consisted of 128 × 128 × 159 voxels, each of a size of 0.78 × 0.78 × 0.80 mm. The PET images were manually co-registered with the MRI template. This was done by using the wash-in phase of the tracer to identify the brain contour for alignment with the MRI template. We scaled the PET images to percentage of injected dose per cubic centimeter. We then applied these VOIs to the co-registered PET images and exported the VOI values to Microsoft Excel 2010 in order to calculate cortex + hippocampus-to-cerebellum ratios (further referred to as PET ratios).
We tested the tg/ctl ratios for significance. First, we performed a one-way ANOVA between the three groups showing significance.

Aβ deposits = assay: Ex vivo autoradiography, cortex/cerebellum uptake ratio; assay type: in vivo, mouse; conditions: n ≥ 3
Description: In the present study, ex vivo autoradiography of [^18F]FIBT and [^18F]Florbetaben (Figure SI-1) were performed following a published procedure (Manook et al., 2012).
Figure SI-1. [^18F]FIBT and [^18F]Florbetaben autoradiography and cortex/ cerebellum uptake ratio (n≥ 3). Images of digital ex vivo autoradiography of a 12 µm thick axial section of age- and gender matched control (A and C) and APP/PS1 tg mouse brain (B and D). [^18F]FIBT (A and B), and [^18F]Florbetaben (C and D).

[2] = Ex vivo brain uptake studies in BALB/c mice; set-up: species or system mouse; conditions: BALB/c mice without Aβ pathology, compared to [^18F]FIBT
Description: Ex vivo brain uptake studies were performed in male BALB/c mice (mean ± SD body weight: 23 ± 2 g). […] Groups of mice were killed at 5 and 30 min p.i. Radioactivity of weighted brain samples was measured in a γ-counter (Wallac 1480-011 Automatic Gamma Counter, PerkinElmer, Waltham, MA, USA). Data are expressed as percent of the injected dose per gram tissue (% I.D./g; mean ± SD, N = 5).

Aβ aggregates [3] = conditions: post mortem AD brain homogenates; cited from earlier work
Aβ aggregates [4] = target: Aβ aggregates; set-up: method as in PMID 24900362; conditions: versus [^3H]PiB; cited from earlier work
[5] = APP/PS1 tg mice (N = 4), 24-month-old

| logD at 5 min ([1]; read-out: Log D oct/PBS) | Initial brain uptake ([2]; 5 min p.i.) | Brain tracer retention ([2]; 30 min p.i.) | Log D oct/PBS [1] | Structure (SMILES) | Mean PET ratio (SUVR ± SD), cortex + hippocampus to cerebellum (Aβ plaques; [5]) | Mean PET ratio (SUVR ± SD), cortex + hippocampus to cerebellum (Aβ plaques; C57BL6/J control mice (N = 3)) | SUVRtg/SUVRctl (tg/ctl) (Aβ plaques) | Ctx/Clb ratio (Aβ deposits; APP/PS1 tg mouse brain) | Ctx/Clb ratio (Aβ deposits; Ctl mouse brain) | Kd (Aβ aggregates [3]) | Ki (Aβ aggregates [4]) |
| --- | --- | --- | --- | --- | --- | --- | --- | --- | --- | --- | --- |
| 1.58 ± 0.13 | lower initial uptake | higher tracer retention |  | CNc1ccc(/C=C/c2ccc(OCCOCCOCCF)cc2)cc1 [[^18F]florbetaben, florbetaben] | 1.35 ± 0.06 | 0.90 ± 0.01 | 1.50 ± 0.06 | 2.0 ± 0.3 | 1.3 ± 0.1 | 6.7 ± 0.3 nM |  |
|  |  |  |  | CNc1ccc(-c2nc3ccc(O)cc3s2)cc1 [[^11C]PiB, Pittsburgh compound B] |  |  | 2.11 ± 0.24 |  |  |  |  |
|  |  |  | 1.92 ± 0.06 | CNc1ccc(-c2cn3c(n2)sc2cc(OCC[18F])ccc23)cc1 [[^18F]FIBT, 2-(p-methylaminophenyl)-7-(2-[^18F]fluoroethoxy)imidazo[2,1-b]benzothiazole] | 1.68 ± 0.15 | 0.95 ± 0.02 | 1.78 ± 0.16 | 4.7 ± 0.3 | 1.1 ± 0.1 | 0.7 ± 0.2 nM | 2.1 ± 0.8 nM |
